{
  "source": "patent US8420608B2",
  "about": "“Active substance combinations with insecticides and acaricide properties” (Bayer Cropscience AG, priority 2008, dated 2013)",
  "type_in_all_cases": "in vivo",
  "key": {"Spodoptera frugiperda": {"tested_on": "Spodoptera frugiperda", "assay": "Spodoptera frugiperda larvae test (sprayed cabbage leaves)", "source_text": "(§1) The expected action for a given combination of two active compounds can be calculated as follows, according to S. R. Colby, Weeds 15 (1967), 20-22:\n(§2) If • X is the kill rate, expressed as a percentage of the untreated control, when employing active compound A at an application rate of m g/ha or in a concentration of m ppm, • Y is the kill rate, expressed as a percentage of the untreated control, when employing active compound B at an application rate of n g/ha or in a concentration of n ppm and • E is the kill rate, expressed as a percentage of the untreated control, when employing active compounds A and B at application rates of m and n g/ha or in a concentration of m and n ppm, then\n(§3) If the actual insecticidal kill rate exceeds the calculated value, the kill of the combination is superadditive, i.e. a synergistic effect is present. In this case, the actually observed kill rate must exceed the value calculated using the above formula for the expected kill rate (E).\n(§4) To produce a suitable preparation of active compound, 1 part by weight of active compound is mixed with the stated amounts of solvents and emulsifier, and the concentrate is diluted with emulsifier-containing water to the desired concentration.\nCabbage leaves (Brassica oleracea) are treated by spraying with the active compound preparation of the desired concentration and are populated with larvae of the army worm (Spodoptera frugiperda) while the leaves are still moist.\nAfter the desired period of time, the kill in % is determined. 100% means that all caterpillars have been killed; 0% means that none of the caterpillars have been killed. The kill rates determined are entered into Colby's formula."}, "Tetranychus urticae": {"tested_on": "Tetranychus urticae", "assay": "Tetranychus test (OP-resistant/spray treatment)", "source_text": "as §1, §2, §3\nTo produce a suitable preparation of active compound, 1 part by weight of active compound is mixed with the stated amounts of solvents and emulsifier, and the concentrate is diluted with emulsifier-containing water to the desired concentration. […]\nAfter the desired period of time, the activity in % is determined. […]"}, "Myzus persicae": {"tested_on": "Myzus persicae", "assay": "Myzus persicae test (spray on infested cabbage leaves)", "source_text": "as §1, §2, §3, §4\nCabbage leaves (Brassica oleracea) which are heavily infested by the green peach aphid (Myzus persicae) are treated by spraying with the active compound preparation of the desired concentration.\nAfter the desired period of time, the kill in % is determined. 100% means that all aphids have been killed; 0% means that none of the aphids have been killed. The kill rates determined are entered into Colby's formula."}, "Phaedon cochleariae": {"tested_on": "Phaedon cochleariae", "assay": "Phaedon cochleariae larvae test (sprayed cabbage leaves)", "source_text": "as §1, §2, §3, §4\nCabbage leaves (Brassica oleracea) are treated by spraying with the active compound preparation of the desired concentration and are populated with larvae of the mustard beetle (Phaedon cochleariae) while the leaves are still moist.\nAfter the desired period of time, the kill in % is determined. 100% means that all beetle larvae have been killed; 0% means that none of the beetle larvae have been killed. The kill rates determined are entered into Colby's formula."}},
  "data": [
    {"molecule": "CCC(C)(C)C(=O)OC1=C(c2ccc(Cl)cc2Cl)C(=O)OC12CCCCC2", "note": "[spirodiclofen]", "values": [
      {"measurement": "Kill in % after 6d", "setting": "Spodoptera frugiperda; 0.8 g/ha", "result": 0, "unit": "%"}
    ]},
    {"molecule": "Cc1cc(C)c(C2=C(OC(=O)CC(C)(C)C)C3(CCCC3)OC2=O)c(C)c1", "note": "[spiromesifen]", "values": [
      {"measurement": "Kill in % after 2d", "setting": "Tetranychus urticae; 4 g/ha", "result": 0, "unit": "%"},
      {"measurement": "Kill in % after 6d", "setting": "Myzus persicae; 100 g/ha", "result": 50, "unit": "%"},
      {"measurement": "Kill in % after 6d", "setting": "Phaedon cochleariae; 4 g/ha", "result": 0, "unit": "%"},
      {"measurement": "Kill in % after 6d", "setting": "Spodoptera frugiperda; 0.8 g/ha", "result": 0, "unit": "%"}
    ]},
    {"molecule": "CCOC(=O)OC1=C(c2cc(C)ccc2C)C(=O)N[C@]12CC[C@@H](OC)CC2", "note": "[spirotetramat]", "values": [
      {"measurement": "Kill in % after 6d", "setting": "Myzus persicae; 0.8 g/ha", "result": 0, "unit": "%"},
      {"measurement": "Kill in % after 2d", "setting": "Phaedon cochleariae; 20 g/ha", "result": 0, "unit": "%"},
      {"measurement": "Kill in % after 6d", "setting": "Spodoptera frugiperda; 0.8 g/ha", "result": 0, "unit": "%"}
    ]},
    {"molecule": "spinetoram", "values": [
      {"measurement": "Kill in % after 2d", "setting": "Tetranychus urticae; 0.8 g/ha", "result": 0, "unit": "%"},
      {"measurement": "Kill in % after 6d", "setting": "Myzus persicae; 0.16 g/ha", "result": 0, "unit": "%"},
      {"measurement": "Kill in % after 6d", "setting": "Myzus persicae; 20 g/ha", "result": 0, "unit": "%"},
      {"measurement": "Kill in % after 6d", "setting": "Phaedon cochleariae; 0.8 g/ha", "result": 50, "unit": "%"},
      {"measurement": "Kill in % after 2d", "setting": "Phaedon cochleariae; 4 g/ha", "result": 50, "unit": "%"},
      {"measurement": "Kill in % after 6d", "setting": "Spodoptera frugiperda; 0.16 g/ha", "result": 83, "unit": "%"}
    ]}
  ]
}
